Measurements published in publication PMC8151276, “An Integrated Approach toward NanoBRET Tracers for Analysis of GPCR Ligand Engagement” (Molecules, 2021).
Values belong to the compound of their own block, whether it stands above or below them.

What was measured:
Type in all cases: binding
[1] = biological target: T1, P2RY12 (Homo sapiens, UniProt Q9H244); experiment: NanoBRET screen HiBiT-P2RY12 in HEK293
T1 construct: purchased Promega (in-house HiBiT-GPCR construct library, NanoBRET)
Experimental: (§1) Each tracer candidate was screened across the entire library of HiBiT-GPCR constructs using NanoBRET as the detection modality. As depicted in Figure 4A, the specificity of interactions was evaluated through decrease in BRET due to competitive displacement of a bound tracer by excess parental compound. Each tracer was analyzed for binding to each HiBiT-GPCR fusion in the absence and in the presence of competing parental compound. Briefly, HEK293 cells were transfected with HiBiT-GPCR constructs diluted into promoterless DNA to reduce expression and maximize translocation to the cell surface. Each tracer candidate was then screened at concentrations of 1 μM and 0.1 μM across cells expressing these fusions. Cells were treated for 1.5 h with tracer either alone or in the presence of 20 μM competing parental compound (i.e., control). BRET was measured upon addition of purified LgBiT and subsequent complementation with HiBiT genetically fused to a GPCR. The specificity of interactions was assessed through a decrease in BRET signal due to competitive displacement of the bound tracer. To further gauge the robustness of these interactions, the fold response over the control (i.e., BRETtracer/BRETcontrol) was calculated. We chose a 1.5-fold response, which translates to ≥7-fold signal over noise as the minimal threshold required to score an interaction as positive. […]. Below we highlight the screening results obtained for our exemplary fluorescent tracers based on Clozapine, Amitriptyline and AZD1283.
(§2) HiBiT-GPCR DNA constructs were diluted in 10 mM Tris pH 8 to a final concentration of 0.01 μg/μL, arrayed in 96-well plates and stored at −20 °C. For transfection, HEK293 cells were suspended in Opti-MEM (without phenol red) supplemented with 2% fetal bovine serum (Seradigm) and 100 units/mL penicillin–streptomycin (Gibco) at a final concentration of 220,000 cells/mL and dispensed into white 96-well plates at 90 μL/well. Subsequent transfections and screens were carried using an Agilent Bravo Automated Liquid Handling Platform. First, the 96-well HiBiT DNA arrays were diluted 25-fold in Opti-MEM (without serum or phenol red) to a final concentration of 0.0004 μg/μL and 20 μL of the diluted DNAs were transferred into new 96-well plates. Next, promoterless carrier DNA (1 μg/μL) was diluted 25-fold (0.04 μg/μL) and then dispensed into the diluted arrays at 20 μL/well. Following brief mixing, Viafect transfection reagent (Promega) diluted 16-fold into Opti-MEM was dispensed into the plates at 40 μL/well. After mixing by pipetting, plates were incubated for 10 min on the pipetting station deck. The DNA-transfection reagent complexes were then added to plates containing cells. To facilitate the screen, 10 μL of DNA-transfection reagent complexes were added in duplicates to the top 4 and bottom 4 rows, resulting in two identical 48-well arrays per plate. Plates with transfected cells were incubated for 18–20 h at 37 °C/5% CO2. A screen of each tracer across the entire library using two different concentrations requires duplicate plates of transfected cells. Depending on the number of tracers being screened, transfections can be scaled up using the same ratios. The next day, for each tracer, four 20× screening solutions in tracer dilution buffer (Promega) were prepared: two duplicates at final concentration of 20 μM and two duplicates at a final concentration of 2 μM. A competing unmodified compound was added to one of each duplicate at a final concentration of 400 μM. The four resulting solutions were diluted 4-fold in Opti-MEM without serum or phenol red to generate 5× solutions (5 µM and 0.5 µM tracer +/− 100 μM competing compound). To screen the library, a BioTek MultiFlo FX liquid dispenser was used to dispense 22.5 µL of tracer solution to the top 4 rows and 22.5 µL tracer + competing compound solution to the 4 bottom rows. Plates were briefly mixed on an orbital shaker and incubated for 1.5 h at room temperature. […]

[2] = biological target: T2, RXFP2 (Homo sapiens, UniProt Q8WXD0); experiment: NanoBRET screen HiBiT-RXFP2 in HEK293
T2 construct: purchased Promega (in-house HiBiT-GPCR construct library, NanoBRET)
T2 sequence (Q8WXD0 whole entry): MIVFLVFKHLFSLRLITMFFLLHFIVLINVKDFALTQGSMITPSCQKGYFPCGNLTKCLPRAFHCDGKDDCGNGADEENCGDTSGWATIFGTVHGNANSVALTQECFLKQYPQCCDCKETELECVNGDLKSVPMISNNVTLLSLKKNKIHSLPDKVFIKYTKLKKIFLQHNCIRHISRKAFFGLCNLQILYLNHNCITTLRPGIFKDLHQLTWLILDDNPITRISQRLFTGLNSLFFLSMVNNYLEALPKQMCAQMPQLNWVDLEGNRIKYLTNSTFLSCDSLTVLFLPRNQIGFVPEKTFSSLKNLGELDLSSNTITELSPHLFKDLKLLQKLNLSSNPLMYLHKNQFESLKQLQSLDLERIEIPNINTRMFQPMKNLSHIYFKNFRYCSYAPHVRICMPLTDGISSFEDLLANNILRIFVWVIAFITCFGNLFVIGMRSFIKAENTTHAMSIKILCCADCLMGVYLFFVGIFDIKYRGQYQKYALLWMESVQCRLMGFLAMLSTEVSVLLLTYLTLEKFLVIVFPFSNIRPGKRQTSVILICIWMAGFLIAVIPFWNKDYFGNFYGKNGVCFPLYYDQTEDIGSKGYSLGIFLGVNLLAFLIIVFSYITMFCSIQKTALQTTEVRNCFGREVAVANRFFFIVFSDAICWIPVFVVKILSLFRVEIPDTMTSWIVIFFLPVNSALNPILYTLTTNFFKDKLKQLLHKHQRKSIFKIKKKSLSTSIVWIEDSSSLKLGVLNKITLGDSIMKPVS
Experimental: as §1, §2

[3] = biological target: T3, GABBR2 (Homo sapiens, UniProt O75899); experiment: NanoBRET screen HiBiT-GABBR2 in HEK293
T3 construct: purchased Promega (in-house HiBiT-GPCR construct library, NanoBRET)
T3 sequence (O75899 42-941): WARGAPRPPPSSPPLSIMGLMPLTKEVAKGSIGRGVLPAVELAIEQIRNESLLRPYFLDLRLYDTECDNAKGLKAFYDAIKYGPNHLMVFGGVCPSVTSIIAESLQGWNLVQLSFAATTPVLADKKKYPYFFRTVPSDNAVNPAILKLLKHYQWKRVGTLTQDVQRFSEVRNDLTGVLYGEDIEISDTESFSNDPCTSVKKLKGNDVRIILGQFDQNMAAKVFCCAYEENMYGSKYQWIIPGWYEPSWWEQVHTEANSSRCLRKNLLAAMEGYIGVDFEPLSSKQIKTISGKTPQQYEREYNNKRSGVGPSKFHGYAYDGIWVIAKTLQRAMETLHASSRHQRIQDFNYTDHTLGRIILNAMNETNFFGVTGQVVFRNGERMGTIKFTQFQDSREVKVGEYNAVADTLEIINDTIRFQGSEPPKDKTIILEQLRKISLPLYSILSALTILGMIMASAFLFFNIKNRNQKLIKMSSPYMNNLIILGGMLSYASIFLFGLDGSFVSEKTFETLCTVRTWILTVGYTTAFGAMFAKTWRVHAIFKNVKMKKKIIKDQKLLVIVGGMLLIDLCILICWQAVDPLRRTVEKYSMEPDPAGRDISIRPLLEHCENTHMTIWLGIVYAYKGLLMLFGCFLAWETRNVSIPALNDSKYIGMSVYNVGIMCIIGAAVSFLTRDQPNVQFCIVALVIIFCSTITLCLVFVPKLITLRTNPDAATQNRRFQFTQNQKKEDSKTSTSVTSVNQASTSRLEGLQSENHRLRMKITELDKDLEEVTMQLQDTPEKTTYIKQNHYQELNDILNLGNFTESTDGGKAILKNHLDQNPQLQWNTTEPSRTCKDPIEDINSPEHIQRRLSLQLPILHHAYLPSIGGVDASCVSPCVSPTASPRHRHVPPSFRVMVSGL
Experimental: as §1, §2

[4] = tracer at 0.1μM, listed as amitriptyline-b-2-NB590

T1 sequence (Q9H244 whole entry, one chain of several): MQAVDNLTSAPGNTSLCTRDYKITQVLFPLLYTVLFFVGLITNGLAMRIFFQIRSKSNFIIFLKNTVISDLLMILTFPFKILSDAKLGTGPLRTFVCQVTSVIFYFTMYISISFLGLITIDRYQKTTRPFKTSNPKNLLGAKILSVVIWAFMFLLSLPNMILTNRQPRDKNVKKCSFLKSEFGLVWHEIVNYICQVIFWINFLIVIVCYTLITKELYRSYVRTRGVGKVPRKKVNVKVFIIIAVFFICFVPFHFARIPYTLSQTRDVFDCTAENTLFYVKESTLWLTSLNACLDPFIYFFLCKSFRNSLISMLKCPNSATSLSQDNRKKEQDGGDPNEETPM

SMILES: CN(C)CCC=C1c2ccccc2CCc2ccc(C(=O)NCCNC(=O)CCOCCOCCOCCOCCNC(=O)CCc3ccc4n3[B-](F)(F)[N+]3=C(c5ccc[nH]5)C=CC3=C4)cc21 [Amitriptyline-b-2-NB590]
- NanoBRET Fold Response [1, 4]: 0.96
- NanoBRET Fold Response ([2]; tracer at 0.1μM): 1.09
- NanoBRET Fold Response ([2]; tracer at 1μM): 1.34
- NanoBRET Fold Response [3, 4]: 1.13
- NanoBRET Fold Response ([3]; tracer at 1μM, listed as amitriptyline-b-2-NB590): 1.30

SMILES: O=C(CCc1ccc2n1[B-](F)(F)[N+]1=C(c3ccc[nH]3)C=CC1=C2)NCCOCCOCCNC(=O)OCCOCCN1CCN(C2=Nc3ccccc3Sc3ccccc32)CC1 [Quetiapine-a-2-NB590]
- NanoBRET Fold Response ([1]; P2RY12, tracer 0.1μM): 0.99
- NanoBRET Fold Response ([1]; P2RY12, tracer 1μM): 0.92
- NanoBRET Fold Response ([2]; RXFP2, tracer 0.1μM): 1.31
- NanoBRET Fold Response ([2]; RXFP2, tracer 1μM): 1.01
- NanoBRET Fold Response ([3]; GABBR2, tracer 0.1μM): 1.06
- NanoBRET Fold Response ([3]; GABBR2, tracer 1μM): 0.91

SMILES: Cc1cc2c(s1)Nc1ccccc1N=C2N1CCN(CCCNC(=O)CCOCCOCCOCCOCCNC(=O)CCc2ccc3n2[B-](F)(F)[N+]2=C(c4ccc[nH]4)C=CC2=C3)CC1 [Olanzapine-a-2-NB590]
- NanoBRET Fold Response ([1]; P2RY12, tracer 0.1μM): 0.98
- NanoBRET Fold Response ([1]; P2RY12, tracer 1μM): 0.97
- NanoBRET Fold Response ([2]; RXFP2, tracer 0.1μM): 0.27
- NanoBRET Fold Response ([2]; RXFP2, tracer 1μM): 0.46
- NanoBRET Fold Response ([3]; GABBR2, tracer 0.1μM): 1.01
- NanoBRET Fold Response ([3]; GABBR2, tracer 1μM): 0.82

SMILES: CN1CCN(C2=Nc3cc(Cl)ccc3Nc3ccc(CNC(=O)CCOCCOCCOCCOCCNC(=O)CCc4ccc5n4[B-](F)(F)[N+]4=C(c6ccc[nH]6)C=CC4=C5)cc32)CC1 [Clozapine-b-2-NB590]
- NanoBRET Fold Response ([1]; P2RY12, 0.1μM tracer): 1.00
- NanoBRET Fold Response ([1]; P2RY12, 1μM tracer): 0.97
- NanoBRET Fold Response ([2]; RXFP2, 0.1μM tracer): 1.04
- NanoBRET Fold Response ([3]; GABBR2, 0.1μM tracer): 0.96
- NanoBRET Fold Response ([3]; GABBR2, 1μM tracer): 1.07

- NanoBRET Fold Response ([1]; 0.1μM tracer): 1.02
- NanoBRET Fold Response ([1]; 1μM tracer): 1.02
- NanoBRET Fold Response ([2]; 0.1μM tracer): 1.10
- NanoBRET Fold Response ([2]; 1μM tracer): 1.34
- NanoBRET Fold Response ([3]; 0.1μM tracer): 0.96
- NanoBRET Fold Response ([3]; 1μM tracer): 0.96
SMILES: COc1ccc2c(n1)c(CCNC(C)=O)cn2CCNC(=O)CCc1ccc2n1[B-](F)(F)[N+]1=C(c3ccc[nH]3)C=CC1=C2 [Azamelatonin-1-NB590]

SMILES: O=C(CCc1ccc2n1[B-](F)(F)[N+]1=C(c3ccc[nH]3)C=CC1=C2)NCc1ccc(C(=O)NCCOCCOCCNCC(O)COc2cccc3ccccc23)cc1 (stereo not shown) [Propranolol-3-NB590]
- NanoBRET Fold Response ([1]; P2RY12, 0.1μM): 1.02
- NanoBRET Fold Response ([1]; P2RY12, 1μM): 0.94
- NanoBRET Fold Response ([2]; RXFP2, 0.1μM): 0.27
- NanoBRET Fold Response ([2]; RXFP2, 1μM): 0.78
- NanoBRET Fold Response ([3]; GABBR2, 0.1μM): 0.96
- NanoBRET Fold Response ([3]; GABBR2, 1μM): 1.13

- NanoBRET Fold Response ([1]; P2RY12, 0.1μM tracer): 1.00
- NanoBRET Fold Response ([1]; P2RY12, 1μM tracer): 0.94
- NanoBRET Fold Response ([2]; RXFP2, 0.1μM tracer): 1.23
- NanoBRET Fold Response ([2]; RXFP2, 1μM tracer): 1.14
- NanoBRET Fold Response ([3]; GABBR2, 0.1μM tracer): 1.07
- NanoBRET Fold Response ([3]; GABBR2, 1μM tracer): 0.80
SMILES: O=C(CCOCCOCCOCCOCCNC(=O)CCc1ccc2n1[B-](F)(F)[N+]1=C(c3ccc[nH]3)C=CC1=C2)NCCCN1CCN(C2=Nc3cc(Cl)ccc3Nc3ccccc32)CC1 [Clozapine-a-2-NB590]
